For 18 compounds, IC50 results are on record in patent US20250388589A1, “TRICYCLIC HETEROCYCLIC DERIVATIVES, COMPOSITIONS AND USES THEREOF” (Danatlas Pharmaceuticals Co., Ltd., priority 2022, published 2025).

One assay concerns Kuramochi cell line. Put plainly: Cell Viability Assay (Cell Titer-Glo, 7 days). Type of assay: cell-based. Particulars: 168 h, Kuramochi cells, 7 days incubation, read-out: PARG Cell viability (IC50). The method, then:
Cell viability studies were conducted in Kuramochi cell line. Cells were maintained in RPMI (Hyclone, Catalog #: SH3080901B) supplemented with 10% v/v FBS (AusGeneX, Catalog #: FBS500-S), 1% v/v Penicillin Streptomycin (Gibco, Catalog #: 15140122). Cells were seeded in 96-well plates (PerkinElmer, Catalog #: 6005680) at a density of 400 cells/well. Compounds dissolved in DMSO were plated in duplicate using a multichannel pipette, and tested on a 9-point 3-fold serial dilution. Cells were incubated for 7 days in a 37° C. active humidified incubator at 5% CO2. Cell viability was measured using the Cell Titer-Glo reagent (Promega, Catalog #: G7573) as manufacturer's instructions. Luminescence signal was measured with a multimode plate reader (Perkin Elmer, Envision 2105 or BMG, ClarioStar Plus). Average values of DMSO treated wells in a plate was calculated and as high control (HC). Average values of only medium in a plate was calculated and as low control (LC)
(§1) IC50 values were determined by fitting the data to the standard 4 parameters with Hill Slope using GraphPad Prism software.
A general note: ATP-based viability assays read luminescence as a measure of living cells.

The target of assay [1] is hPARG (C-terminal His6-tag) (Homo sapiens (Human), UniProt Q86W56). The assay can be described thus: PARG Enzymatic Activity Assay (HTRF). Type of assay: biochemical. The conditions noted are these: hPARG 65 pM final, biotinylated-NAD ribosylated PARP1 8 nM final. The method, then:
PARG Enzymatic Activity Assay HTRF assay was used to measure the ability of compounds to inhibit the activity of PARG in vitro. C-terminal His6-tag PARG expressed in E. coli was purified and stored at −80° C. in aliquots. Assay measurements were performed with 1×buffer comprising 50 mM Tris pH 7.4, 0.1 mg/mL BSA, 3 mM EDTA, 0.4 mM EGTA, 1 mM DTT, 50 mM KCl and 0.01% Tween 20.
Compounds dissolved in DMSO were plated into a 384-well assay plate (PerkinElmer, Catalog #: 6008280) in duplicate using a dispenser (Labcyte, Echo 665), and tested on a 10-point 4-fold serial dilution. Add 5 L Enzyme mix [hPARG (C-terminal His6-tag, 4.2 μM), 65 pM final] to the test wells. The plates were covered and left to incubate for 60 minutes at RT before the addition of 5 L substrate mix [biotinylated-NAD ribosylated PARP1 (6.1 μM), 8 nM final] to initiate reaction. After incubating 10 minutes at RT, add 2.5 L Streptavidin-Eu cryptate (Cisbio, Catalog #: 610SAKLA) and 2.5 L Mab anti 6HIS-XL665 (Cisbio, Catalog #: 61HISXLA) to the plate, and incubate for 60 minutes at RT. Read on a multimode plate reader (PerkinElmer, Envision 2015) in time-resolved fluorescence (TRF) mode, with excitation at 337 nm and emission at both 620 nm and 665 nm. Average HTRF signal of high control (Wells with 1% DMSO) was calculated and as Vehicle Control (VC). Average HTRF signal of low control (no Enzyme) was calculated and as Positive control (PC).
as §1
A general note: TR-FRET usually uses a lanthanide donor and a delayed reading to cut background.

One may read the IC50 as the concentration at which inhibition is half-maximal.

Where only a bound is given, the exact number is not on record here.

hPARG (C-terminal His6-tag), sequence (Q86W56 whole entry): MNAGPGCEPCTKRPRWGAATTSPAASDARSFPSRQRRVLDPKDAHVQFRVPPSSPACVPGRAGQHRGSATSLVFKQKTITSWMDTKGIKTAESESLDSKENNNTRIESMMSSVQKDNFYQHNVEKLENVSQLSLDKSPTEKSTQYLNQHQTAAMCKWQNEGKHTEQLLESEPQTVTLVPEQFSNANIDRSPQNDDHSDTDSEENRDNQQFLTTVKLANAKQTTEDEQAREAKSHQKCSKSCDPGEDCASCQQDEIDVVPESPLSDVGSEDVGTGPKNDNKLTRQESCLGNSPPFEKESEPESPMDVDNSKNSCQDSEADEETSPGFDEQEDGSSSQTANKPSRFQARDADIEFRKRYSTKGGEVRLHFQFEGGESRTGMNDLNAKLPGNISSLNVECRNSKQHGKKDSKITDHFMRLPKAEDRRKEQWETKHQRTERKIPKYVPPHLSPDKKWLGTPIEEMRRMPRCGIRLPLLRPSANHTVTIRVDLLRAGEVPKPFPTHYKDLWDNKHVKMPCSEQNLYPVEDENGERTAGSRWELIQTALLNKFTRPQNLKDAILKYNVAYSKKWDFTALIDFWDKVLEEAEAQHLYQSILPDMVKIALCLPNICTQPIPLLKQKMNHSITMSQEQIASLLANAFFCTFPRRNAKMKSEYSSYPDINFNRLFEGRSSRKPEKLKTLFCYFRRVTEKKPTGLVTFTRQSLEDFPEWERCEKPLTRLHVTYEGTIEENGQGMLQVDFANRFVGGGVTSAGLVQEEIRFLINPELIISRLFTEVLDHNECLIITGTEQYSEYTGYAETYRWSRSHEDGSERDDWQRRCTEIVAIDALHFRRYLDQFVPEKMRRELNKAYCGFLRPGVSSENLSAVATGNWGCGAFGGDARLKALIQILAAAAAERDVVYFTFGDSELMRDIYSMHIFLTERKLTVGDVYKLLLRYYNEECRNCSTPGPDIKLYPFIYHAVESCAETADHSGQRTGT

As for `N#CC1(NS(=O)(=O)c2ccc3c4c(N5CCC(F)(F)CC5)ncnc4n(-c4nnc(C(F)F)s4)c3c2)CC1` [Example 52, N-(1-Cyanocyclopropyl)-9-(5-(difluoromethyl)-1,3,4-thiadiazol-2-yl)-4-(4,4-difluoropiperidin-1-yl)-9H-pyrimido[4,5-b]indole-7-sulfonamide], the IC50 (in the assay on Kuramochi cell line; in assay [1]) was 100 to 1000 nM in each case.

Regarding `CN(C)C(=O)N1CC2CN(c3ncnc4c3c3ccc(S(=O)(=O)NC5(C#N)CC5)cc3n4-c3nnc(C(F)F)s3)CC2C1` (stereo not drawn) [Example 28, 5-(7-(N-(1-Cyanocyclopropyl)sulfamoyl)-9-(5-(difluoromethyl)-1,3,4-thiadiazol-2-yl)-9H-pyrimido[4,5-b]indol-4-yl)-N,N-dimethylhexahydropyrrolo[3,4-c]pyrrole-2(1H)-carboxamide], the IC50 with Kuramochi cell line was 100 to 1000 nM; in assay [1] it was less than 100 nM.

For the compound `CO[C@@H](C)C(=O)N1CCC(c2ncnc3c2c2ccc(S(=O)(=O)NC4(C#N)CC4)cc2n3-c2nnc(C(F)F)s2)CC1` [Example 108, (S)-N-(1-Cyanocyclopropyl)-9-(5-(difluoromethyl)-1,3,4-thiadiazol-2-yl)-4-(1-(2-methoxypropanoyl)piperidin-4-yl)-9H-pyrimido[4,5-b]indole-7-sulfonamide], the IC50 (in the assay with Kuramochi cell line; in assay [1]) was less than 100 nM in each case.

As to `CCS(=O)(=O)N1CCC(c2ncnc3c2c2ccc(S(=O)(=O)NC4(C#N)CC4)cc2n3-c2nnc(C(F)F)s2)CC1` [Example 122, N-(1-Cyanocyclopropyl)-9-(5-(difluoromethyl)-1,3,4-thiadiazol-2-yl)-4-(1-(ethylsulfonyl)piperidin-4-yl)-9H-pyrimido[4,5-b]indole-7-sulfonamide], the IC50 (in the assay with Kuramochi cell line; in assay [1]) was less than 100 nM in each case.

Turning to `C[C@H]1CN(c2ncnc3c2c2ccc(S(=O)(=O)NC4(C#N)CC4)cc2n3-c2nnc(C(F)F)s2)CCN1C` [Example 98, (S)—N-(1-Cyanocyclopropyl)-9-(5-(difluoromethyl)-1,3,4-thiadiazol-2-yl)-4-(3,4-dimethylpiperazin-1-yl)-9H-pyrimido[4,5-b]indole-7-sulfonamide], the IC50 (in the assay with Kuramochi cell line; in assay [1]) was less than 100 nM each time.

As to `CC(C)c1nnc(-n2c3cc(S(=O)(=O)NC4(C#N)CC4)ccc3c3c(N4CCN(C(=O)C5CC5)CC4)ncnc32)s1` [Example 186, N-(1-Cyanocyclopropyl)-4-(4-(cyclopropanecarbonyl)piperazin-1-yl)-9-(5-isopropyl-1,3,4-thiadiazol-2-yl)-9H-pyrimido[4,5-b]indole-7-sulfonamide], the IC50 (in the assay with Kuramochi cell line; in assay [1]) was 100 to 1000 nM throughout.

Turning to `CC1(NS(=O)(=O)c2ccc3c4c(N5CCN6CCOC[C@H]6C5)ncnc4n(-c4nnc(C(F)F)s4)c3c2)CC1` [Example 184, (R)-9-(5-(Difluoromethyl)-1,3,4-thiadiazol-2-yl)-4-(hexahydropyrazino[2,1-c][1,4]oxazin-8(1H)-yl)-N-(1-methylcyclopropyl)-9H-pyrimido[4,5-b]indole-7-sulfonamide], the IC50 in the assay on Kuramochi cell line was 100 to 1000 nM; in assay [1], less than 100 nM.

Turning to `N#CC1(NS(=O)(=O)c2ccc3c4c(N5CCN(C(=O)N6CCCC6)CC5)ncnc4n(-c4nnc(C(F)F)s4)c3c2)CC1` [Example 41, N-(1-Cyanocyclopropyl)-9-(5-(difluoromethyl)-1,3,4-thiadiazol-2-yl)-4-(4-(pyrrolidine-1-carbonyl)piperazin-1-yl)-9H-pyrimido[4,5-b]indole-7-sulfonamide], the IC50 (in the assay on Kuramochi cell line; in assay [1]) was less than 100 nM each time.

Consider `CN1CC=C(c2ncnc3c2c2ccc(S(=O)(=O)NC4(C#N)CC4)cc2n3-c2nnc(C(F)F)s2)CC1` [Example 77, N-(1-Cyanocyclopropyl)-9-(5-(difluoromethyl)-1,3,4-thiadiazol-2-yl)-4-(1-methyl-1,2,3,6-tetrahydropyridin-4-yl)-9H-pyrimido[4,5-b]indole-7-sulfonamide], for which the IC50 (in the assay with Kuramochi cell line; in assay [1]) was less than 100 nM in each case.

With `CO[C@H](C)C(=O)N1CCC(c2ncnc3c2c2ccc(S(=O)(=O)NC4(C)CC4)cc2n3-c2nnc(C(F)F)s2)CC1` [Example 95, (R)-9-(5-(Difluoromethyl)-1,3,4-thiadiazol-2-yl)-4-(1-(2-methoxypropanoyl)piperidin-4-yl)-N-(1-methylcyclopropyl)-9H-pyrimido[4,5-b]indole-7-sulfonamide], the IC50 (in the assay on Kuramochi cell line; in assay [1]) was less than 100 nM throughout.

In the case of `CN1CCC[C@@H]1C(=O)N1CCC(c2ncnc3c2c2ccc(S(=O)(=O)NC4(C#N)CC4)cc2n3-c2nnc(C(F)F)s2)CC1` [Example 104, N-(1-Cyanocyclopropyl)-9-(5-(difluoromethyl)-1,3,4-thiadiazol-2-yl)-4-(1-(methyl-D-prolyl)piperidin-4-yl)-9H-pyrimido[4,5-b]indole-7-sulfonamide], the IC50 in the assay on Kuramochi cell line is 100 to 1000 nM; in assay [1], less than 100 nM.

For `CN1CCN(C(=O)N2CCN(c3ncnc4c3c3ccc(S(=O)(=O)NC5(C#N)CC5)cc3n4-c3nnc(C(F)F)s3)CC2)CC1` [Example 9, N-(1-Cyanocyclopropyl)-9-(5-(difluoromethyl)-1,3,4-thiadiazol-2-yl)-4-(4-(4-methylpiperazine-1-carbonyl)piperazin-1-yl)-9H-pyrimido[4,5-b]indole-7-sulfonamide], the results for the IC50 (in the assay with Kuramochi cell line; in assay [1]) were 100 to 1000 nM and less than 100 nM, respectively.

For the compound `COC(C)(C)C(=O)N1CCC(c2ncnc3c2c2ccc(S(=O)(=O)NC4(C#N)CC4)cc2n3-c2nnc(C(F)F)s2)CC1` [Example 119, N-(1-cyanocyclopropyl)-9-(5-(difluoromethyl)-1,3,4-thiadiazol-2-yl)-4-(1-(2-methoxy-2-methylpropanoyl)piperidin-4-yl)-9H-pyrimido[4,5-b]indole-7-sulfonamide], the IC50 (with Kuramochi cell line; in assay [1]) was less than 100 nM in each case.

As for `N#CC1(NS(=O)(=O)c2ccc3c4c(C5CCOCC5)ncnc4n(-c4nnc(C(F)F)s4)c3c2)CC1` [Example 79, N-(1-Cyanocyclopropyl)-9-(5-(difluoromethyl)-1,3,4-thiadiazol-2-yl)-4-(tetrahydro-2H-pyran-4-yl)-9H-pyrimido[4,5-b]indole-7-sulfonamide], the IC50 (with Kuramochi cell line; in assay [1]) was less than 100 nM each time.

Consider `CC(=O)N1CCC(c2ncnc3c2c2ccc(S(=O)(=O)NC4(C#N)CC4)cc2n3-c2nnc(C(F)F)s2)CC1` [Example 105, 4-(1-acetylpiperidin-4-yl)-N-(1-cyanocyclopropyl)-9-(5-(difluoromethyl)-1,3,4-thiadiazol-2-yl)-9H-pyrimido[4,5-b]indole-7-sulfonamide], for which the 50% inhibitory concentration (IC50) (in the assay with Kuramochi cell line; in assay [1]) was less than 100 nM each time.

Turning to `COCC(=O)N1CCC(c2ncnc3c2c2ccc(S(=O)(=O)NC4(C#N)CC4)cc2n3-c2nnc(C(F)F)s2)CC1` [Example 117, N-(1-cyanocyclopropyl)-9-(5-(difluoromethyl)-1,3,4-thiadiazol-2-yl)-4-(1-(2-methoxyacetyl)piperidin-4-yl)-9H-pyrimido[4,5-b]indole-7-sulfonamide], the IC50 (in the assay with Kuramochi cell line; in assay [1]) was less than 100 nM each time.

As for `CCN1CCN(c2ncnc3c2c2ccc(S(=O)(=O)NC4(C#N)CC4)cc2n3-c2nnc(C(F)F)s2)CC1=O` [Example 155, N-(1-cyanocyclopropyl)-9-(5-(difluoromethyl)-1,3,4-thiadiazol-2-yl)-4-(4-ethyl-3-oxopiperazin-1-yl)-9H-pyrimido[4,5-b]indole-7-sulfonamide], the IC50 (in the assay on Kuramochi cell line; in assay [1]) was less than 100 nM each time.

As for `CC(C)(N)C(=O)N1CCC(c2ncnc3c2c2ccc(S(=O)(=O)NC4(C#N)CC4)cc2n3-c2nnc(C(F)F)s2)CC1` [Example 126, 4-(1-(2-Amino-2-methylpropanoyl)piperidin-4-yl)-N-(1-cyanocyclopropyl)-9-(5-(difluoromethyl)-1,3,4-thiadiazol-2-yl)-9H-pyrimido[4,5-b]indole-7-sulfonamide], the IC50 is 100 to 1000 nM with Kuramochi cell line and less than 100 nM in assay [1].
